In paper PMC8704389, “New Insights into the Hypotensins from Tityus serrulatus Venom: Pro-Inflammatory and Vasopeptidases Modulation Activities” (Toxins, 2021):
No end group written: not given here.

Experiments:
[1] = test system: murine peritoneal macrophages; assay: Cell viability of murine peritoneal macrophages, MTT method; format: cell-based, BALB/c mice; settings: 24 h
Protocol: Figure 3 Cytotoxic effect of hypotensins I and II on murine peritoneal macrophages in vitro. Peritoneal exudate macrophages from naïve BALB/c mice were cultured for 24 h in the presence of TsHpt-I (A) and -II (B) at concentrations of 10 µg/mL, 50 µg/mL and 100 µg/mL. Cells cultured with medium alone or in the presence of 5 µg/mL LPS were used as the controls. Cell viability was determined by the MTT method. The results represent the mean ± SD of two independent experiments performed in triplicate. * p < 0.05.
Peritoneal exudate cells (BALB/c naïve mice, n = 6) were collected by two washes with 5 mL of RPMI medium. The cells obtained were washed twice with RMPI medium, at 400 g, for 10 min, at 18 °C, and resuspended in R10 medium (RPMI + 10% fetal cow serum). After counting in a Neubauer chamber, in the presence of Trypan blue, the cell concentration was adjusted to 2 × 10^6 cells/mL. Cells were distributed into 96-well culture plates (2 × 10^5 cells/100 µL/well) and incubated for 2 h at 37 °C and 5% CO2. After incubation, non-adherent cells were discarded, and adherent cells (macrophages) were resuspended in R10 medium containing the respective tested stimuli, at different concentrations, in triplicates, in a final volume of 200 µL/well. Cells resuspended in R10 medium were used as a negative control, and cells stimulated with LPS (5 µg/mL) as a positive control. Cells were then incubated for 24 h at 37 °C and 5% CO2. After this period, the culture supernatants were collected and stored at −80 °C, for subsequent dosage of cytokines, and cell viability was determined by MTT assay.
After a 24-h period of incubation of cells with hypotensins (10 µg/mL, 50 µg/mL and 100 µg/mL), MTT assays were performed, consisting of the addition of 100 µL of R10 containing 0.5 mg/mL of tetrazolium salt 3-(4.5-dimethylthiazol-2-yl)-2,5-diphenyltetrazolium bromide (MTT) in all wells, followed by a new incubation, under the same conditions, for 4 h. Then, the supernatants were discarded, and 100 µL/well of DMSO were added to dissolve the formed crystals. Absorbance was determined in a spectrophotometer at 540 nm. Cell viability was calculated based on the absorbances of the samples and the negative control (cells cultivated only with R10).

[2] = test system: NEP; assay: in vitro; format: in vitro ADME; settings: human, isolated enzyme neprilysin; 30 µM peptide, NEP 1.5 ng, Tris HCl 50 mM, pH 7.5, 4 h, 37 °C, RP-HPLC C18, UV 214 nm; read-out: hydrolysis products after incubation with NEP
Protocol: Figure 1 Analysis of the susceptibility to hydrolysis of the hypotensins over the vasopeptidases NEP and ACE. Incubations were carried out in Tris HCl 100 mM, NaCl 50 mM and ZnCl2 10 µM, pH 7.0, for the ACE assays, and, for the NEP assays, in Tris HCl 50 mM, pH 7.5 buffer, for four hours at 37 °C. (A) TsHpt-I control (black line) and after incubation with NEP (red line). (B) TsHpt-II control (black line) and TsHpt-II incubated with NEP (red line). (C) TsHpt-I control (black line) and incubated with ACE (red line). (D) TsHpt-II control (black line) and after incubation with ACE (red line). The samples of negative and experimental controls (A) TsHpt-I and (B) TsHpt-II are shown on the left and right, respectively. The hydrolysis products were considered ≤5%. The gradient used was 20% to 60% solvent B in 20 min, and 60% to 100% solvent B in 5 min (flow 1 mL/min, absorbance at 214 nm). Restek Ultra C-18 5 µm column, 250 × 4.6 mm.
The synthetic peptides TsHpt-I and TsHpt-II (30 µM) were incubated with ACE (3.0 ng), in Tris HCl 100 mM, NaCl 50 mM and ZnCl2 10 µM, pH 7.0 buffer, and NEP (1.5 ng), in Tris HCl 50 mM, pH 7.5 buffer, at 37 °C for 4 h. Samples containing only the synthetic peptides were used as the negative control. After incubation, samples were analyzed by reverse phase chromatography on RP-HPLC (Shimadzu, Kyoto, Japan), using a Restek Ultra C-18 column (5 µm, 250 × 4.6 mm). […]

[3] = test system: murine peritoneal macrophages; assay: Phagocytic activity of murine peritoneal macrophages (Saccharomyces cerevisiae); format: cell-based, BALB/c mice; settings: 100 µg/mL, 24 h, then 1 h with Saccharomyces cerevisiae; duplicate; versus negative control
Protocol: Figure 5 Phagocytic activity of the murine peritoneal macrophages stimulated in vitro with TsHpt-I and -II. Peritoneal exudate macrophages from naïve BALB/c mice were cultured on glass coverslips for 24 h in culture medium or in the presence of LPS (5 μg/mL) or TsHpt-I and -II (100 μg/mL). After this period, the cells were incubated for 1 h with a suspension of Saccharomyces cerevisiae. Coverslips were washed, fixed and stained by Giemsa. (A) Phagocytosis images in 400× magnification. (B) The phagocytic index was calculated based on the percentage of phagocytic cells and on the average number of yeasts per cell, by counting approximately 200 cells per coverslip in 1000× magnification. The results represent one of two reproducible experiments performed in duplicate (mean ± SD). * p < 0.05.
Peritoneal macrophages from naïve BALB/c mice (n = 6) were obtained as described above (item 5.5.1). Cells were distributed in 24-well culture plates (5 × 10^5 cells/500 µL/well), with glass coverslips inside, and incubated for 2 h at 37 °C and 5% CO2. […] Phagocytosis was evaluated by immersion optical microscopy (1000×) and quantified by counting approximately 200 cells per cover slip. The percentage of phagocytic cells and the average number of internalized yeasts per phagocytic cell were calculated. […]

[4] = 10 µg/mL, control (medium) = 100%, two independent experiments in triplicate

Sequence	cell viability [1, 4]	cell viability ([1]; 100 µg/mL)	metabolised at 4 h, 30 µM [2] [%]	phagocytic index [3]
AEIDFSGIPEDIIKEIKETNAKPPA [TsHpt-II]	about 75%	not able to decrease cellular viability	≤ 5	significant increase in the phagocytic index
AEIDFSGIPEDIIKQIKETNAKPPA [TsHpt-I]	about 75%	not able to decrease cellular viability	≤ 5	significant increase in the phagocytic index
